Measured values published in US20210113586A1, “NEW USE AND METHODS OF MODULATING IMMUNE RESPONSES” (DIAMYD MEDICAL AB, priority 2018, published 2021).

Experiments:
Format in all cases: cell-based, human
[1] = test system: GABAA receptors; assay: Patch-clamp single-channel current recording in CD4+ T cells; settings: GABA 100 or 500 nM; n=54 cells; FIG. 3i
Experimental: GABA-activated currents were recorded by the patch-clamp technique as previously described (Bjurstom et al., 2008, Jin et al., 2011a). Extracellular recording solution contained (in mM): 145 NaCl, 3 KCl, 1 CsCl, 1 CaCl2, 1 MgCl2, 10 glucose and 10 TES; the pH was adjusted to 7.4 with NaOH. To record in the whole-cell configuration, the pipette solution contained (in mM): 136 CsCl, 20 KCl, 1 MgCl2, 3 MgATP and 10 TES; pH was adjusted to 7.3 with CsOH. The pipette solution for the cell-attached configuration contained (in mM): 69 NaCl, 5 KCl, 75 CsCl, 1 CaCl2, 1 MgCl2 and 10 TES; pH was adjusted to 7.4 with NaOH. […] The pipette potential (Vp) was −80 mV (hyperpolarizing) in the whole-cell configuration and −60 mV (depolarizing) in the cell-attached configuration.

[2] = test system: responder CD4+ T cells; assay: Proliferation of anti-CD3 stimulated GABA responder CD4+ T cells from ND individuals; settings: Example 1, FIG. 1B; CD4-positive cells from 10 healthy donors; 100 nM GABA
Experimental: (§1) Peripheral Blood Mononuclear cells (PBMCs) are isolated from blood from donors diagnosed with Type-1 diabetes and healthy controls. Alternatively, CD4-positive cells (T-cells) are further isolated from PBMCs by e.g. MACS beads, FACS or similar technology. […] A reasonable replication, such as 3 cultures of each condition, is performed. A normalized proliferation value for each culture is then calculated by a standard proliferation measurement method, such as by CFSE staining or radioactive thymidine incorporation (requiring additional factors be added during culture) or by staining for proliferation markers.
(§2) In the FIG. 1, the proliferation of cells retrieved from 13 T1D subjects and 15 healthy controls were inspected. […] A normalized proliferation index was calculated for each culture.
(§3) The proliferation of freshly isolated human PBMCs or CD4^+ T cells was evaluated with MTT (3-(4,5-Dimethylthiazol-2-yl)-2,5-Diphenyltetrazolium Bromide) assay (Ring et al., 2012). Cells were suspended in complete medium (RPMI 1640 supplemented with 2 mM glutamine, 25 mM HEPES, 10% heat inactivated fetal bovine serum, 100 U/ml penicillin, 10 mg/ml streptomycin, 5 mM R-mercaptoethanol) in a concentration 1 million cells per milliliter. The assay was performed in 96-well plates in duplicates or triplicates, where each well was pre-coated with 3 μg/ml anti-CD3 antibody for 3-5 h at 37° C. Each well was loaded with 100,000 cells. Drugs were added to the wells at the relevant concentrations. The plate was incubated for 68 h at 37° C. (95% O2, 5% CO2) and then, a media-soluble tetrazolium dye MTT was added to a final concentration of 1 mM after which the plate was incubated for additional 4 h. The plate was then centrifuged at 2,000 RPM for 10 min to pellet the insoluble purple formazan crystals. The supernatant culture media was collected, stored at −80° C. and used for analysis of cytokines using the multiplex proximity extension assay (PEA). The formazan crystal pellet was dissolved in DMSO and the plate was read within 10 min using a Multiskan MS plate reader (Labsystems) at 550 nm. The optical density value was used as the proliferation index value. Drugs were purchased from Sigma-Aldrich or Tocris (Bristol, UK).

[3] = test system: PBMCs from T1D individuals; assay: Proliferation of anti-CD3 stimulated PBMCs from T1D donors; settings: Example 1, FIG. 1D; PBMCs from all 13 T1D donors; 100 nM GABA
Experimental: as §1, §2
as §3, with “The optical density value was used as the proliferation index value. Drugs were purchased from Sigma-Aldrich or Tocris (Bristol, UK).” left out

[4] = test system: non-responder CD4+ T cells; assay: Multiplex PEA of cytokines released into culture medium by non-responder CD4+ T cells
Experimental: as §3
Plasma samples, and culture media samples that were collected from plate wells at the end of the proliferation assay, were analyzed by multiplex PEA with an Olink Inflammation […] panel, targeting 92 proteins related to inflammation (Olink Proteomics, Uppsala, Sweden) as previously described (Edvinsson et al., 2017, Assarsson et al., 2014, Larsson et al., 2015, Larssen et al., 2017). Briefly, 1 μl of sample (plasma samples or cell culture media samples) or negative control was mixed with 3 μl probe solution containing a set of 92 paires DNA-oligonucleotide-conjugated antibodies. Upon recognition of a target protein by a pair of probes, the DNA oligonucletodies on the antibodies are brought in proximity and hybridize to each other, followed by enzymatic DNA polymerization to form a new DNA molecule. The newly formed DNA molecule is then amplified and quantified using a microfluidic real-time qPCR, BioMark™ HD (Fluidigm, South San Francisco, Calif., USA). The generated quantification cycle (Cq) values are normalized against spiked-in controls to convert Cq values to Normalized Protein eXpression (NPX) value on log2 scale. NPX is an arbitrary unit, which is positively correlated to protein concentration. These NPX data were then converted to linear data, using the formula 2^NPX, prior to further statistical analysis. Limit of detection (LOD) for each protein was defined as three standard deviations above the background. Proteins with levels below LOD were excluded from further data analysis.

[5] = GABA 100 nM, non-responder CD4+ T cells, normalized to control
[6] = GABA 500 nM, non-responder CD4+ T cells, normalized to control

Compound: NCCCC(=O)O [GABA, gamma-aminobutyric acid]
- GABAA single-channel currents [1]: activated
- proliferation in the presence of GABA [2]: did proliferate less
- proliferation in the presence of GABA [3]: proliferated less
- IL-1 alpha in culture medium, % Mean [4, 5]: 112.8%
- MMP-1 in culture medium, % Mean [4, 5]: 124.2%
- IL-5 in culture medium, % Mean [4, 6]: 87.2%
- PD-L1 in culture medium, % Mean [4, 6]: 120.4%
- TGF-alpha in culture medium, % Mean [4, 6]: 109.5%
- number of cytokines whose secretion was regulated ([4]; GABA 100 and 500 nM, at each concentration): four
